ChEMBL document CHEMBL2010711, “Synthesis and comparative evaluation of 4-oxa- and 4-aza-podophyllotoxins as antiproliferative microtubule destabilizing agents” (Bioorg Med Chem Lett, 2012)
The source made the active and inactive calls.

Legend:
[1] = test system: ACHN; test: Cytotoxicity against human ACHN cells after 48 hrs by trypan blue dye exclusion assay; assay type: functional
[2] = test system: MOLT-4; test: Cytotoxicity against human MOLT4 cells after 48 hrs by trypan blue dye exclusion assay; assay type: functional; conditions: MOLT-4, 48 h
[3] = test system: LOX IMVI; test: Cytotoxicity against human LOXIMVI cells after 48 hrs by trypan blue dye exclusion assay; assay type: functional
[4] = test system: OVCAR-8; test: Cytotoxicity against human OVCAR8 cells after 48 hrs by trypan blue dye exclusion assay; assay type: functional; conditions: OVCAR-8, 48 h
[5] = test system: CAKI-1; test: Cytotoxicity against human CAKI-1 cells after 48 hrs by trypan blue dye exclusion assay; assay type: functional; conditions: CAKI-1, 48 h
[6] = test system: IGROV-1; test: Cytotoxicity against human IGROV1 cells after 48 hrs by trypan blue dye exclusion assay; assay type: functional; conditions: IGROV-1, 48 h
[7] = test system: Paracentrotus lividus; test: Antimitotic activity against Paracentrotus lividus embryo assessed as cleavage arrest at 2 fold less effective threshold concentration after 2.5 to 6 hrs; assay type: functional, organism-based
[8] = test system: SN12C; test: Cytotoxicity against human SN12C cells after 48 hrs by trypan blue dye exclusion assay; assay type: functional
[9] = test system: NCI-H23; test: Cytotoxicity against human NCI-H23 cells after 48 hrs by trypan blue dye exclusion assay; assay type: functional; conditions: NCI-H23, 48 h
[10] = test system: OVCAR-4; test: Cytotoxicity against human OVCAR4 cells after 48 hrs by trypan blue dye exclusion assay; assay type: functional; conditions: OVCAR-4, 48 h
[11] = test system: SNB-19; test: Cytotoxicity against human SNB19 cells after 48 hrs by trypan blue dye exclusion assay; assay type: functional; conditions: SNB-19, 48 h
[12] = test system: HOP-92; test: Cytotoxicity against human HOP92 cells after 48 hrs by trypan blue dye exclusion assay; assay type: functional; conditions: HOP-92, 48 h
[13] = test system: SW-620; test: Cytotoxicity against human SW620 cells after 48 hrs by trypan blue dye exclusion assay; assay type: functional; conditions: SW-620, 48 h
[14] = test system: HCC 2998; test: Cytotoxicity against human HCC2998 cells after 48 hrs by trypan blue dye exclusion assay; assay type: functional; conditions: HCC 2998, 48 h
[15] = test system: HT-29; test: Cytotoxicity against human HT-29 cells after 48 hrs by trypan blue dye exclusion assay; assay type: functional; conditions: HT-29, 48 h
[16] = test system: Paracentrotus lividus; test: Antimitotic activity against Paracentrotus lividus embryo assessed as cleavage alteration at 2 fold less effective threshold concentration after 2.5 to 6 hrs; assay type: functional, organism-based
[17] = test system: MDA-MB-435; test: Cytotoxicity against human MDA-MB-435 cells after 48 hrs by trypan blue dye exclusion assay; assay type: functional; conditions: MDA-MB-435, 48 h
[18] = test system: CCRF-CEM; test: Cytotoxicity against human CCRF-CEM cells after 48 hrs by trypan blue dye exclusion assay; assay type: functional
[19] = test system: Paracentrotus lividus; test: Microtubule destabilizing activity in Paracentrotus lividus embryo assessed as embryo spinning at 2 fold less effective threshold concentration after 15 mins to 20 hrs; assay type: functional, organism-based
[20] = test system: SK-OV-3; test: Cytotoxicity against human SKOV3 cells after 48 hrs by trypan blue dye exclusion assay; assay type: functional; conditions: SK-OV-3, 48 h
[21] = test system: A549; test: Cytotoxicity against human A549 cells after 48 hrs by trypan blue dye exclusion assay; assay type: functional; conditions: A549, 48 h
[22] = test system: SR; test: Cytotoxicity against human SR cells after 48 hrs by trypan blue dye exclusion assay; assay type: functional
[23] = test system: UACC-257; test: Cytotoxicity against human UACC257 cells after 48 hrs by trypan blue dye exclusion assay; assay type: functional; conditions: UACC-257, 48 h
[24] = test system: RPMI-8226; test: Cytotoxicity against human RPMI8226 cells after 48 hrs by trypan blue dye exclusion assay; assay type: functional; conditions: RPMI-8226, 48 h
[25] = test system: HL-60(TB); test: Cytotoxicity against human HL-60(TB) cells after 48 hrs by trypan blue dye exclusion assay; assay type: functional; conditions: HL-60, 48 h
[26] = test system: SK-MEL-2; test: Cytotoxicity against human SK-MEL-2 cells after 48 hrs by trypan blue dye exclusion assay; assay type: functional; conditions: SK-MEL-2, 48 h
[27] = test system: MCF7; test: Cytotoxicity against human MCF7 cells after 48 hrs by trypan blue dye exclusion assay; assay type: functional; conditions: MCF7, 48 h
[28] = test system: NCI-H522; test: Cytotoxicity against human NCI-H522 cells after 48 hrs by trypan blue dye exclusion assay; assay type: functional; conditions: NCI-H522, 48 h
[29] = test system: TK-10; test: Cytotoxicity against human TK10 cells after 48 hrs by trypan blue dye exclusion assay; assay type: functional; conditions: TK-10, 48 h
[30] = test system: SF-295; test: Cytotoxicity against human SF295 cells after 48 hrs by trypan blue dye exclusion assay; assay type: functional; conditions: SF-295, 48 h
[31] = test system: NCI/ADR-RES; test: Cytotoxicity against human NCI/ADR-RES cells after 48 hrs by trypan blue dye exclusion assay; assay type: functional
[32] = test system: M14; test: Cytotoxicity against human M14 cells after 48 hrs by trypan blue dye exclusion assay; assay type: functional; conditions: M14, 48 h
[33] = test system: UACC-62; test: Cytotoxicity against human UACC62 cells after 48 hrs by trypan blue dye exclusion assay; assay type: functional; conditions: UACC-62, 48 h
[34] = test system: Malme-3M; test: Cytotoxicity against human MALME-3M cells after 48 hrs by trypan blue dye exclusion assay; assay type: functional
[35] = test system: SF-539; test: Cytotoxicity against human SF539 cells after 48 hrs by trypan blue dye exclusion assay; assay type: functional; conditions: SF-539, 48 h
[36] = test system: SF-268; test: Cytotoxicity against human SF268 cells after 48 hrs by trypan blue dye exclusion assay; assay type: functional; conditions: SF-268, 48 h
[37] = test system: MDA-MB-231; test: Cytotoxicity against human MDA-MB-231 cells after 48 hrs by trypan blue dye exclusion assay; assay type: functional; conditions: MDA-MB-231, 48 h
[38] = test system: DU-145; test: Cytotoxicity against human DU145 cells after 48 hrs by trypan blue dye exclusion assay; assay type: functional; conditions: DU-145, 48 h
[39] = test system: SNB-75; test: Cytotoxicity against human SNB75 cells after 48 hrs by trypan blue dye exclusion assay; assay type: functional; conditions: SNB-75, 48 h
[40] = test system: MDA-MB-468; test: Cytotoxicity against human MDA-MB-468 cells after 48 hrs by trypan blue dye exclusion assay; assay type: functional; conditions: MDA-MB-468, 48 h
[41] = test system: SK-MEL-5; test: Cytotoxicity against human SK-MEL-5 cells after 48 hrs by trypan blue dye exclusion assay; assay type: functional; conditions: SK-MEL-5, 48 h
[42] = test system: SK-MEL-28; test: Cytotoxicity against human SK-MEL-28 cells after 48 hrs by trypan blue dye exclusion assay; assay type: functional; conditions: SK-MEL-28, 48 h
[43] = test system: COLO 205; test: Cytotoxicity against human COLO205 cells after 48 hrs by trypan blue dye exclusion assay; assay type: functional; conditions: COLO 205, 48 h
[44] = test system: U-251; test: Cytotoxicity against human U251 cells after 48 hrs by trypan blue dye exclusion assay; assay type: functional; conditions: U-251, 48 h
[45] = test system: A498; test: Cytotoxicity against human A498 cells after 48 hrs by trypan blue dye exclusion assay; assay type: functional; conditions: A498, 48 h
[46] = test system: HCT-116; test: Cytotoxicity against human HCT116 cells after 48 hrs by trypan blue dye exclusion assay; assay type: functional; conditions: HCT-116, 48 h
[47] = test system: BT-549; test: Cytotoxicity against human BT549 cells after 48 hrs by trypan blue dye exclusion assay; assay type: functional; conditions: BT-549, 48 h
[48] = test system: NCI-H322M; test: Cytotoxicity against human NCI-H322M cells after 48 hrs by trypan blue dye exclusion assay; assay type: functional
[49] = test system: PC-3; test: Cytotoxicity against human PC3 cells after 48 hrs by trypan blue dye exclusion assay; assay type: functional; conditions: PC-3, 48 h
[50] = test system: 786-0; test: Cytotoxicity against human 786-0 cells after 48 hrs by trypan blue dye exclusion assay; assay type: functional; conditions: 786-0, 48 h
[51] = test system: KM12; test: Cytotoxicity against human KM12 cells after 48 hrs by trypan blue dye exclusion assay; assay type: functional; conditions: KM12, 48 h
[52] = test system: NCI-H226; test: Cytotoxicity against human NCI-H226 cells after 48 hrs by trypan blue dye exclusion assay; assay type: functional; conditions: NCI-H226, 48 h
[53] = test system: OVCAR-3; test: Cytotoxicity against human OVCAR3 cells after 48 hrs by trypan blue dye exclusion assay; assay type: functional; conditions: OVCAR-3, 48 h
[54] = Cytotoxicity against human Hs 578T cells after 48 hrs by trypan blue dye exclusion assay; assay type: functional
[55] = test system: EKVX; test: Cytotoxicity against human EKVX cells after 48 hrs by trypan blue dye exclusion assay; assay type: functional
[56] = test system: OVCAR-5; test: Cytotoxicity against human OVCAR5 cells after 48 hrs by trypan blue dye exclusion assay; assay type: functional; conditions: OVCAR-5, 48 h
[57] = test system: HCT-15; test: Cytotoxicity against human HCT15 cells after 48 hrs by trypan blue dye exclusion assay; assay type: functional; conditions: HCT-15, 48 h
[58] = test system: NCI-H460; test: Cytotoxicity against human NCI-H460 cells after 48 hrs by trypan blue dye exclusion assay; assay type: functional; conditions: NCI-H460, 48 h
[59] = test system: RXF 393; test: Cytotoxicity against human RXF393 cells after 48 hrs by trypan blue dye exclusion assay; assay type: functional; conditions: RXF 393, 48 h
[60] = test system: UO-31; test: Cytotoxicity against human UO31 cells after 48 hrs by trypan blue dye exclusion assay; assay type: functional; conditions: UO-31, 48 h

In the case of `COc1cc([C@H]2C3=C(COC3=O)Nc3cc4c(cc32)OCO4)cc2c1OCO2`, the GI50 [1] is reported as 357 nM, the GI50 [2] is reported as 360 nM and the GI50 [3] is reported as 117 nM. For the same molecule, the GI50 [4] was 232 nM, the GI50 [5] was 128 nM and the GI50 [6] was 185 nM. The Activity [7] was “inactive”, the GI50 [8] was 350 nM and the GI50 [9] was 142 nM. It also gave a GI50 [10] of 98.4 nM, a GI50 [11] of 362 nM and a GI50 [12] of 136 nM. For the same molecule, the GI50 [13] was 98.2 nM, the GI50 [14] was 387 nM and the GI50 [15] was 1250 nM. The Activity [16] was “inactive”, the GI50 [17] was 26.9 nM and the GI50 [18] was 120 nM. For the same molecule, the Activity [19] was “inactive”, the GI50 [20] was 155 nM and the GI50 [21] was 306 nM. It also gave a GI50 [22] of 60.1 nM, a GI50 [23] of 74.1 nM and a GI50 [24] of 93.1 nM. For the same molecule, the GI50 [25] was 99 nM, the GI50 [26] was 207 nM and the GI50 [27] was 37.2 nM. It also gave a GI50 [28] of 144 nM, a GI50 [29] of 115 nM and a GI50 [30] of 29 nM. It also gave a GI50 [31] of 103 nM, a GI50 [32] of 228 nM and a GI50 [33] of 48 nM. It also gave a GI50 [34] greater than 100000 nM, a GI50 [35] of 48.3 nM and a GI50 [36] of 108 nM. The GI50 [37] was 308 nM, the GI50 [38] was 173 nM and the GI50 [39] was 26.7 nM. The GI50 [40] was 119 nM, the GI50 [41] was 101 nM and the GI50 [42] was 61 nM. It also gave a GI50 [43] of 186 nM, a GI50 [44] of 108 nM and a GI50 [45] of 30.9 nM. For the same molecule, the GI50 [46] was 236 nM, the GI50 [47] was 338 nM and the GI50 [48] was 142 nM. It also gave a GI50 [49] of 80.3 nM, a GI50 [50] of 321 nM and a GI50 [51] of 36.2 nM. For the same molecule, the GI50 [52] was 4590 nM, the GI50 [53] was 31.9 nM and the GI50 [54] was 37.8 nM. For the same molecule, the GI50 [55] was 320 nM, the GI50 [56] was 1090 nM and the GI50 [57] was 256 nM. The GI50 [58] was 690 nM, the GI50 [59] was 30.3 nM and the GI50 [60] was 1380 nM.
